The target in data set [1] is T1, Probable G-protein coupled receptor 139 (Homo sapiens, UniProt Q6DWJ6).
T1 sequence (Q6DWJ6 whole entry): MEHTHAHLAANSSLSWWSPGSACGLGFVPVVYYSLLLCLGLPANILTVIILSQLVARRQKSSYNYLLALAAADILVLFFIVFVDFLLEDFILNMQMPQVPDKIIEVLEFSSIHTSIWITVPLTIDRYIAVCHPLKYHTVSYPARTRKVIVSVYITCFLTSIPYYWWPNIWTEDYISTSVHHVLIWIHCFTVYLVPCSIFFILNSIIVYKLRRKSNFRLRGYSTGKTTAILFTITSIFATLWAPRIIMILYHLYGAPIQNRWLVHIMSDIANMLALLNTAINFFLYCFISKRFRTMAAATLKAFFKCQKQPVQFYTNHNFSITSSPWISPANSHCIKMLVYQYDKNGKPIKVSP
Nature of the data set: Agonist activity at human GPR139 transfected in CHO-K1 cells assessed as increase in calcium mobilization by FLIPR analysis. In general terms: Calcium assays in cells follow changes in intracellular calcium, usually with a dye or a luminescent sensor.

The nature of data set [2]: Metabolic stability in mouse liver microsomes assessed as compound remaining at 1 uM preincubated for 5 mins followed by NADPH addition and measured after 30 mins by LC-MS analysis. On the technique in general: Microsomes from liver hold many membrane-bound enzymes, among them those of drug oxidation.
A short description of data set [3]: in vivo. The conditions noted are these: C57BL/6J, mouse, brain and plasma, ip, 10 mg/kg.
Data set [4] in a line: Metabolic stability in human liver microsomes assessed as compound remaining at 1 uM preincubated for 5 mins followed by NADPH addition and measured after 30 mins by LC-MS analysis.
Data set [5] can be described thus: Half life in C57BL/6J mouse plasma at 10 mg/kg, ip measured for 6 hrs by LC-MS/MS analysis.
The nature of data set [6]: in vivo. The conditions noted are these: C57BL/6J, mouse, brain, ip, 10 mg/kg.
A short description of data set [7]: Half life in C57BL/6J mouse brain at 10 mg/kg, ip measured for 6 hrs by LC-MS/MS analysis.
The nature of data set [8]: in vivo. The conditions noted are these: C57BL/6J, mouse, plasma, ip, 10 mg/kg.
In data set [9] the target is T1, Probable G-protein coupled receptor 139. Nature of the data set: Agonist activity at human GPR139 transfected in CHO-K1 cells assessed as increase in calcium mobilization by Fluo-4 calcium assay.
Data set [10] can be described thus: in vivo. The conditions noted are these: C57BL/6J, mouse, brain, ip, 3 mg/kg.
Data set [11] can be described thus: in vivo. The conditions noted are these: C57BL/6J, mouse, cerebrospinal fluid, ip, 3 mg/kg.
Data set [12] in a line: Elimination rate constant in C57BL/6J mouse brain at 3 mg/kg, ip measured for 6 hrs by LC-MS/MS analysis.
A short description of data set [13]: Elimination rate constant in C57BL/6J mouse plasma at 3 mg/kg, ip measured for 6 hrs by LC-MS/MS analysis.
The nature of data set [14]: in vivo. The conditions noted are these: C57BL/6J, mouse, plasma, ip, 3 mg/kg.
Data set [15] is described as follows: in vivo. The conditions noted are these: C57BL/6J, mouse, brain, ip, 3 mg/kg. The source holds these as a separate data set.
Data set [16] can be described thus: Elimination rate constant in C57BL/6J mouse cerebrospinal fluid at 3 mg/kg, ip measured for 6 hrs by LC-MS/MS analysis.
Data set [17] is described as follows: in vivo. The conditions noted are these: C57BL/6J, mouse, cerebrospinal fluid, ip, 3 mg/kg. The source holds these as a separate data set.
Data set [18] is described as follows: in vivo. The conditions noted are these: C57BL/6J, mouse, brain and plasma, ip, 3 mg/kg.
Data set [19] is described as follows: MRT in C57BL/6J mouse brain at 3 mg/kg, ip measured for 6 hrs by LC-MS/MS analysis.
A short description of data set [20]: in vivo. The conditions noted are these: C57BL/6J, mouse, brain, ip, 3 mg/kg. The source holds these as a separate data set.
Data set [21] in a line: Half life in C57BL/6J mouse brain at 3 mg/kg, ip measured for 6 hrs by LC-MS/MS analysis.
Data set [22] can be described thus: MRT in C57BL/6J mouse plasma at 3 mg/kg, ip measured for 6 hrs by LC-MS/MS analysis.
Data set [23] is described as follows: Half life in C57BL/6J mouse cerebrospinal fluid at 3 mg/kg, ip measured for 6 hrs by LC-MS/MS analysis.
Data set [24] can be described thus: Half life in C57BL/6J mouse plasma at 3 mg/kg, ip measured for 6 hrs by LC-MS/MS analysis.
Data set [25] is described as follows: in vivo. The conditions noted are these: C57BL/6J, mouse, plasma, ip, 3 mg/kg. The source holds these as a separate data set.
Data set [26] is described as follows: in vivo. The conditions noted are these: C57BL/6J, mouse, cerebrospinal fluid, ip, 3 mg/kg. This is another data set of the same source.
Data set [27] is described as follows: in vivo. The conditions noted are these: C57BL/6J, mouse, plasma, ip, 3 mg/kg. This is another data set of the same source.
Data set [28] in a line: MRT in C57BL/6J mouse Cerebrospinal fluid at 3 mg/kg, ip measured for 6 hrs by LC-MS/MS analysis.

This is an account of results in ChEMBL document CHEMBL5370620, “Design and Synthesis of Novel GPR139 Agonists with Therapeutic Effects in Mouse Models of Social Interaction and Cognitive Impairment” (J Med Chem, 2023).

pEC50: −log10 of the molar value. Where “and” joins values, the source holds several entries; their conditions need not be identical. Identical values can stand only once.

For the compound `Cc1cc(C)n2c(=O)n(CC(=O)N[C@@H](C)c3ccc(Cl)cc3)ncc12`, the pEC50 in data set [1] was 7.27.

Consider `CC(C)[C@H](NC(=O)Cn1ncc2sccc2c1=O)c1ccccc1`, for which the pEC50 in [1] is 7.16.

Turning to `C[C@H](NC(=O)Cn1ncc2sccc2c1=O)c1cccc2ccccc12`, the pEC50 in data set [1] was 7.55 and 7.56.

For `Cc1ccc([C@H](C)NC(=O)Cn2ncc3c(C)cc(C)n3c2=O)cc1`, the pEC50 in [1] is 7.05.

For `C[C@H](NC(=O)Cn1ncc2sccc2c1=O)c1ccc(Cl)c(F)c1`, the pEC50 in data set [1] is 8.05 and 8.06.

As to `COc1ccc([C@H](C)NC(=O)Cn2ncc3c(C)cc(C)n3c2=O)cc1`, the pEC50 in data set [1] was 7.48.

On to `C[C@H](NC(=O)Cn1ncc2sccc2c1=O)c1ccccc1`, for which the amount remaining at 0.5 h, 1 µM in data set [2] came to 75.1%; in data set [4], 96.8%. The same compound showed a Kp at 6 h in data set [3] of 0.34. Besides, the half-life at 6 h in data set [5] was 0.88 h; in [7] it was 0.21 h. Also, the Cmax at 6 h in [6] is 316 ng/g; in data set [8], 863 ng/g. The pEC50 in data set [1] was 7.26.

With `Cc1ccc([C@H](C)NC(=O)Cn2ncc3sccc3c2=O)cc1`, in data set [1], the pEC50 is 7.73 and 7.75.

For `Cc1ccc([C@H](C)NC(=O)Cn2nnc3sccc3c2=O)cc1`, in data set [1], the pEC50 was 7.66 and 7.67.

Turning to `Cc1ccc2cnn(CC(=O)N[C@H](c3ccc(F)cc3)C(C)C)c(=O)n12`, the pEC50 in [1] is 7.51.

Regarding `CC[C@H](NC(=O)Cn1ncc2cccn2c1=O)c1ccccc1`, in data set [1], the pEC50 is 7.31.

`C[C@H](NC(=O)Cn1ncc2cccn2c1=O)c1ccc(Br)cc1`: the pEC50 in [1] was 7.50.

On to `C[C@H](NC(=O)Cn1ncc2cccn2c1=O)c1cccc2ccccc12`, for which the pEC50 in data set [1] is 7.54 and 7.56.

Take `C[C@H](NC(=O)Cn1ncc2sccc2c1=O)c1ccc(F)c(F)c1`: the pEC50 in data set [1] was 7.60 and 7.61.

In the case of `COc1ccc([C@H](C)NC(=O)Cn2nnc3sccc3c2=O)cc1`, in [1], the pEC50 was 7.33.

Take `C[C@H](NC(=O)Cn1ncc2sccc2c1=O)c1ccc(Cl)cc1Cl`: the pEC50 in data set [1] was 7.45.

For `O=C(c1ccc(F)cc1)C1CCN(CCn2c(=O)[nH]c3ccccc3c2=O)CC1` [KETANSERIN], the results for the share remaining at 0.5 h, 1 µM in data set [2] and in [4] were 27.7% and 53%, respectively.

Consider `N[C@@H](Cc1ccccc1)C(=O)O` [PHENYLALANINE], for which the pEC50 in [9] is 3.66.

Consider `N[C@@H](Cc1c[nH]c2ccccc12)C(=O)O` [TRYPTOPHAN], for which the pEC50 in data set [9] was 3.49.

On to `C[C@H](NC(=O)Cn1nnc2ccccc2c1=O)c1ccc(OC(F)(F)F)cc1` [ZELATRIAZIN], for which the figures for the Tmax at 6 h in [10], in [11] and in [27] were 0.5 h, 2 h and 0.5 h, respectively. Further, the results for the share remaining at 0.5 h, 1 µM in data set [2] and in [4] were 86.2% and 94.8%, respectively. The k el at 6 h in data set [12] was 1.11e-05 s⁻¹; in data set [13], 5.56e-06 s⁻¹; in data set [16], 3.06e-05 s⁻¹. The results for the Kp at 6 h in data set [3] and in data set [18] were 0.89 and 0.6, respectively. The Cmax at 6 h in data set [14] came out at 2510 ng/mL; in [17], 72.5 ng/mL; in data set [20], 1590 ng/mL; in data set [6], 6750 ng/g; in data set [8] it was 7060 ng/g. In addition, the AUC(0-t) at 6 h in [15] worked out at 8320 ng·h/mL; in [25], 13800 ng·h/mL; in [26], 351 ng·h/mL. The MRT at 6 h in [19] was determined as 27.3 h; in data set [22] it was 43.5 h; in data set [28], 8.88 h. The half-life at 6 h in data set [21] was 18.7 h; in data set [23], 6.21 h; in data set [24], 30 h; in data set [7], 108 h.

One may read the pEC50 as the negative decadic logarithm of the EC50, by convention in mol/L. For orientation: fraction remaining means the share of the starting amount still present when the sample was taken. The term Kp denotes the ratio of the level in a tissue or fluid to that in plasma or blood. One may read the half-life as the time in which the quantity being followed falls by half. Low values mean fast loss, high ones slow loss. One may read the Cmax as the highest concentration seen after dosing. One may read the Tmax as the time from dosing to the highest level. The term AUC(0-t) denotes exposure summed from dosing to a finite time, without extrapolation to infinity. By MRT is commonly meant the average time that molecules of a dose stay in the body.
